According to ChEMBL document CHEMBL5365423, “6-Azaspiro[2.5]octanes as small molecule agonists of the human glucagon-like peptide-1 receptor” (Bioorg Med Chem Lett, 2023):
pEC50, pIC50, pKi: −log10 of the molar value.

Key:
[1] = Intrinsic clearance in human hepatocytes measured per million cells; type: ADME, cell-based, Hepatocyte; conditions: read-out: CLH
[2] = target: T1, Glucagon-like peptide 1 receptor (Homo sapiens, UniProt P43220); assay: Displacement of [125I]-GLP1 from GLP-1 receptor (unknown origin) expressed in CHO cells membrane pre-incubated for 10 mins followed by [125I]-GLP1 addition and measured after 180 mins by microbeta scintillation counting method; type: cell membranes
T1 sequence (P43220 whole entry): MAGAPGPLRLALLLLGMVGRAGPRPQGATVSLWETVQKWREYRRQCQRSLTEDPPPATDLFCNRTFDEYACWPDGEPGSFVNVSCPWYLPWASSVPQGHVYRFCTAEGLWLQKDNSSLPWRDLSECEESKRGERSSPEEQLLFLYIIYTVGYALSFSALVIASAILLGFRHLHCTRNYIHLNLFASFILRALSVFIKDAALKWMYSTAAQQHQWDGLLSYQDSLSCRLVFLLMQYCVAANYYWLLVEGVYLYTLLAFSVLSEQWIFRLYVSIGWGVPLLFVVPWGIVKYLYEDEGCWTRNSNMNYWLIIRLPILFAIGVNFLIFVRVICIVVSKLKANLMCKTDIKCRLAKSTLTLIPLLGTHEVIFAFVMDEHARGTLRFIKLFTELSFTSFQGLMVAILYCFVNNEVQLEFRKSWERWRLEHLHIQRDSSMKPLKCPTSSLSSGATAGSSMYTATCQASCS

[3] = Apparent permeability in MDCK cells by LC-MS/MS analysis; type: ADME, cell-based, Canis lupus familiaris; conditions: dog
[4] = target: T2, CYP1A2 (Homo sapiens, UniProt P05177); assay: Inhibition of CYP1A2 (unknown origin) at 3 uM relative to control; type: ADME
T2 sequence (P05177 whole entry): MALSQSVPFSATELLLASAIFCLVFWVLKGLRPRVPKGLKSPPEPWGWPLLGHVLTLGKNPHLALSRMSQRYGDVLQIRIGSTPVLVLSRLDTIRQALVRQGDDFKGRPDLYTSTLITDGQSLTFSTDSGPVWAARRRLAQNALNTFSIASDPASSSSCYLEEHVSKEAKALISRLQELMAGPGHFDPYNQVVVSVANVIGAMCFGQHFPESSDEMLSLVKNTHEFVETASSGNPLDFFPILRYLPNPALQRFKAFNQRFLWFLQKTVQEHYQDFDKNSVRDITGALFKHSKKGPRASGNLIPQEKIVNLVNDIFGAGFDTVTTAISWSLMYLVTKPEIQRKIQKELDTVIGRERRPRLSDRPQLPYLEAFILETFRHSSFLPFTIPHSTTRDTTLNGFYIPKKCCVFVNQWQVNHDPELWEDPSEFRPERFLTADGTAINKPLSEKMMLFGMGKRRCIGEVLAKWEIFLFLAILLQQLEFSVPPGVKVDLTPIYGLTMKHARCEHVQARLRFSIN

[5] = test system: PDE3A1; assay: Inhibition of PDE3A1 (unknown origin); type: toxicity, Homo sapiens
[6] = target: CYP3A4 (Homo sapiens, UniProt P08684); assay: Inhibition of CYP3A4 (unknown origin) at 3 uM relative to control; type: ADME
CYP3A4, sequence (P08684 whole entry): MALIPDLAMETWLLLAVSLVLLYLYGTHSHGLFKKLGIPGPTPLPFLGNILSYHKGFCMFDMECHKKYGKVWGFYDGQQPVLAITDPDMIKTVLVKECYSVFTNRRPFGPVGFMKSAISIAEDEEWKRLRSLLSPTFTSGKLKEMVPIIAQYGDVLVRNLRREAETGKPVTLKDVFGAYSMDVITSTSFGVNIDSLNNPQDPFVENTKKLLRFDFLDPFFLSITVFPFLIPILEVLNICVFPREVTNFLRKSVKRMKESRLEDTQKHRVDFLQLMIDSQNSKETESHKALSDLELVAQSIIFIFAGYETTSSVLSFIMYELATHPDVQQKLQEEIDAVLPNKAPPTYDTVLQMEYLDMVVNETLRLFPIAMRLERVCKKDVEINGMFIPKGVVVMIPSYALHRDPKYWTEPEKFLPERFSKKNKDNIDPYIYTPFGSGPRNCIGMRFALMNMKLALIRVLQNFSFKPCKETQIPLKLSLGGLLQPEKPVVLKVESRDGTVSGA

[7] = Drug metabolism in human hepatocytes assessed as oxidation by LC/MS/MS analysis; type: ADME, cell-based, Hepatocyte
[8] = Drug metabolism in human hepatocytes assessed as glucuronidation by LC/MS/MS analysis; type: ADME, cell-based, Hepatocyte
[9] = target: CYP2D6 (Homo sapiens, UniProt P10635); assay: Inhibition of CYP2D6 (unknown origin) at 3 uM relative to control; type: ADME
CYP2D6, sequence (P10635 whole entry): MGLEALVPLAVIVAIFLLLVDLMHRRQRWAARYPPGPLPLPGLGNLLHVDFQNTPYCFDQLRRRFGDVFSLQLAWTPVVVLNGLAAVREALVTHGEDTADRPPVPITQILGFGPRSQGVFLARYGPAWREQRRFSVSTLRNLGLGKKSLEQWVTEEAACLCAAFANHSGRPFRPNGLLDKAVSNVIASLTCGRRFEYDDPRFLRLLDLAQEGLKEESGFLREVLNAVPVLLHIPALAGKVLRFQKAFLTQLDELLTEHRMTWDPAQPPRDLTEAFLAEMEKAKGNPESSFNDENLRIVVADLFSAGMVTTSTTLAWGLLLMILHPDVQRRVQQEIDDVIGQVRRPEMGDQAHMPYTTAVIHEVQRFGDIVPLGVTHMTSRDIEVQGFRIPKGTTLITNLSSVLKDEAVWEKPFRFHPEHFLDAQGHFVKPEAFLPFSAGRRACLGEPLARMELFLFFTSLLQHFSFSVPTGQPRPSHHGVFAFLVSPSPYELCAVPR

[10] = Lipophilicity, logD of compound; type: physicochemical; conditions: octanol/water
[11] = target: CYP2C9 (Homo sapiens, UniProt P11712); assay: Inhibition of CYP2C9 (unknown origin) at 3 uM relative to control; type: ADME
CYP2C9, sequence (P11712 whole entry): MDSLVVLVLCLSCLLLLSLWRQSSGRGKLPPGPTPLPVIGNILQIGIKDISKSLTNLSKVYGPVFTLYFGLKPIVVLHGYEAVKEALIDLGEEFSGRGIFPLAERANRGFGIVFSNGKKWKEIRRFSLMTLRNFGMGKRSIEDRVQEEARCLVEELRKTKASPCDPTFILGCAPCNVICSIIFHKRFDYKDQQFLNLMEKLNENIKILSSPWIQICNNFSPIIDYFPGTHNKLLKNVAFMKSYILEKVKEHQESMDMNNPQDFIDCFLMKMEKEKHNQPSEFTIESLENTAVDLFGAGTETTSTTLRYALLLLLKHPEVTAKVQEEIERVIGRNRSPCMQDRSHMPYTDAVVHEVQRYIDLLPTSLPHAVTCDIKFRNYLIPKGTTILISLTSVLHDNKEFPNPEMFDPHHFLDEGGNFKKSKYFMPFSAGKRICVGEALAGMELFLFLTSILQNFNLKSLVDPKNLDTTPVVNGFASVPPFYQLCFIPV

[12] = target: Voltage-gated inwardly rectifying potassium channel KCNH2 (Homo sapiens, UniProt Q12809); assay: Inhibition of human ERG dofetilide binding assay; type: toxicity
Voltage-gated inwardly rectifying potassium channel KCNH2, sequence (Q12809 whole entry): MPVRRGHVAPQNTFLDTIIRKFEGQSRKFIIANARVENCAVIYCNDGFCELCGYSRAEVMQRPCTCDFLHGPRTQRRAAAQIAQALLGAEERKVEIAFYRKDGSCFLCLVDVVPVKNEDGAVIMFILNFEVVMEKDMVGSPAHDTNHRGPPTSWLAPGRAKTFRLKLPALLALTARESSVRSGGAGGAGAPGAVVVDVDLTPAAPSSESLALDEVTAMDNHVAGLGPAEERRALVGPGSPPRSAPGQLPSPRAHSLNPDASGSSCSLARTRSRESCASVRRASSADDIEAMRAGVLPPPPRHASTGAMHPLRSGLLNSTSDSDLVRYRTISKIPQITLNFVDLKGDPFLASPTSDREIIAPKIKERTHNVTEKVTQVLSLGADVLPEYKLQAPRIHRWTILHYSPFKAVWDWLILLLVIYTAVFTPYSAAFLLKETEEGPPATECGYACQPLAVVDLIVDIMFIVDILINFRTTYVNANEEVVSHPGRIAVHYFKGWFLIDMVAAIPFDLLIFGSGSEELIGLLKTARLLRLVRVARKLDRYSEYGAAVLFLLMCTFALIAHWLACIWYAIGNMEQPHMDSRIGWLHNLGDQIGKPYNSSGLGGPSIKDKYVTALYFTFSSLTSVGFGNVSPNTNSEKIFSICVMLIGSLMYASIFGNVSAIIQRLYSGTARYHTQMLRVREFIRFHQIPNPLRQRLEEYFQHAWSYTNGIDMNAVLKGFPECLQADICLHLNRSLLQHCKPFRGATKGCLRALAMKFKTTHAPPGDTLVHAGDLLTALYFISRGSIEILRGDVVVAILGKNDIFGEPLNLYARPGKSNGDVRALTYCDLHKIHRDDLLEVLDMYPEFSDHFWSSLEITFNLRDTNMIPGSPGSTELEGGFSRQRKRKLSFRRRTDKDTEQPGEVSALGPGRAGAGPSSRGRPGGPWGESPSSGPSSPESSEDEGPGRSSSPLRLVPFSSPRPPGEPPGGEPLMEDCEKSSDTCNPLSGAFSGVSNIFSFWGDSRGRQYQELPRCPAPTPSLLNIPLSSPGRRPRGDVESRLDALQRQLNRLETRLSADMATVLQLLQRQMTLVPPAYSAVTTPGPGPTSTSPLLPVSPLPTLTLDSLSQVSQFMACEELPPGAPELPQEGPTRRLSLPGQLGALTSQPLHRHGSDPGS

[13] = target: T3, CYP2C8 (Homo sapiens, UniProt P10632); assay: Inhibition of CYP2C8 (unknown origin) at 3 uM relative to control; type: ADME
T3 sequence (P10632 whole entry): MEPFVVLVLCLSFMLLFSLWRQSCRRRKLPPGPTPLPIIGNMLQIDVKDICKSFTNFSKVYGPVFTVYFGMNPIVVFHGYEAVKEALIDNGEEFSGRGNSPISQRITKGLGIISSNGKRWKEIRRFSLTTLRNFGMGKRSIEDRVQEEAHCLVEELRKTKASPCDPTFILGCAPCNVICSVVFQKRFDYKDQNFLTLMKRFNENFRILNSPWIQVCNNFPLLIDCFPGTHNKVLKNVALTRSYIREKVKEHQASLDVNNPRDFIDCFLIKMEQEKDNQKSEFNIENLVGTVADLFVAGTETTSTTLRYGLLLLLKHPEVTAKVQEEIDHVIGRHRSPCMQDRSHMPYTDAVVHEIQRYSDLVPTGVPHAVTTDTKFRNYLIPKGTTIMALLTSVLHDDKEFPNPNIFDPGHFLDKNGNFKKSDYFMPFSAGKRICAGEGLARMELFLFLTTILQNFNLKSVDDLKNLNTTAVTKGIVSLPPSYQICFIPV

[14] = target: T1, Glucagon-like peptide 1 receptor; assay: Agonist activity at GLP-1 receptor (unknown origin) expressed in CHO cells at 20 uM in presence of BETP by cAMP assay relative to control; type: functional, cell-based; conditions: filed as agonist

Structure (SMILES) | hepatocyte CLint [1] | pEC50 [2] | Papp [3] | also measured
N#Cc1ccc(COc2nc(N3CCC4(CC3)C[C@@H]4c3nc4ccc(C(=O)O)cc4n3C[C@@H]3CCO3)ccc2F)c(F)c1 | 20 µL/min/1e6 cells | 7.85 | 5 ×10⁻⁶ cm/s | 
N#Cc1ccc(COc2ccc(F)c(N3CCC4(CC3)C[C@@H]4c3nc4ccc(C(=O)O)cc4n3C[C@@H]3CCO3)n2)c(F)c1 | 32 µL/min/1e6 cells | 8.24 | 6 ×10⁻⁶ cm/s | inhibition at 3 µM [4]: < 20%; pIC50 [5]: 6.39; inhibition at 3 µM [6]: < 20%; Drug metabolism [7]: Metabolite_Detected; Drug metabolism [8]: Metabolite_Detected; inhibition at 3 µM [9]: < 20%; logD [10]: 2.3; inhibition at 3 µM [11]: < 20%; pKi [12]: < 4.40; inhibition at 3 µM [13]: 60%
N#Cc1ccc(COc2cccc(C3CCN(Cc4nc5ccc(C(=O)O)cc5n4C[C@@H]4CCO4)CC3)n2)c(F)c1 [DANUGLIPRON] | 7 µL/min/1e6 cells |  | 10 ×10⁻⁶ cm/s | 
O=C(O)c1ccc2nc([C@H]3CC34CCN(c3ncc(F)c(OCc5ccc(Cl)cc5F)n3)CC4)n(C[C@@H]3CCO3)c2c1 | 27 µL/min/1e6 cells | 7.72 | 3 ×10⁻⁶ cm/s | 
Cn1c(CN2CCC(c3nc(OCc4ccc(Cl)cc4F)ncc3F)CC2)nc2ccccc21 |  |  |  | Activity [14]: 70%
N#Cc1ccc(COc2nc(N3CCC4(CC3)C[C@@H]4c3nc4ccc(C(=O)O)cc4n3C[C@@H]3CCO3)c(F)cc2F)c(F)c1 | 37 µL/min/1e6 cells | 8.39 | 5 ×10⁻⁶ cm/s | 
O=C(O)c1ccc2nc([C@H]3CC34CCN(c3nc(OCc5ccc(Cl)cc5F)ncc3F)CC4)n(C[C@H]3CCO3)c2c1 | 21 µL/min/1e6 cells |  | 5 ×10⁻⁶ cm/s | 
Cn1c(CC2CCN(c3nc(OCc4ccc(Cl)cc4F)ncc3F)CC2)nc2ncccc21 |  |  |  | Activity [14]: 75%
O=C(O)c1ccc2nc([C@H]3CC34CCN(c3nccc(OCc5ccc(Cl)cc5F)n3)CC4)n(C[C@@H]3CCO3)c2c1 | 30 µL/min/1e6 cells | 7.49 | 2 ×10⁻⁶ cm/s | 
Cn1c(CC2CCN(c3nc(OCc4ccc(Cl)cc4F)ncc3F)CC2)nc2ccccc21 |  |  |  | Activity [14]: 40%
N#Cc1ccc(COc2cccc(N3CCC4(CC3)C[C@@H]4c3nc4ccc(C(=O)O)cc4n3C[C@@H]3CCO3)n2)c(F)c1 | 23 µL/min/1e6 cells | 7.82 | 7 ×10⁻⁶ cm/s | 
O=C(O)c1ccc2nc([C@H]3CC34CCN(c3nc(OCc5ccc(Cl)cc5F)ncc3F)CC4)n(C[C@@H]3CCO3)c2n1 | 14 µL/min/1e6 cells | 7.82 | 7 ×10⁻⁶ cm/s | 
